In patent US4205163A, “Tylosin derivatives” (Sanraku-Ocean Co., Ltd., priority 1977, dated 1980):
In brackets after ≈: the same amount, converted by molar mass. Read-outs that look alike come from different tables or passages of the source.

Tests used:
[1] = system: Mycoplasma gallisepticum A-72; experiment: antibacterial activity against Mycoplasma; assay type: cell-based; settings: Mycoplasmoides gallisepticum, A72; strain A-72, macrolide resistant; Eiken PPLO Medium
Excerpt: (§1) Furthermore the new antibiotics according to the present invention also show antimicrobial activity on Mycoplasma. In particular, it is noteworthy that they have much higher antimicrobial activity than tylosin on Mycoplasma that is resistant to macrolide antibiotics. Tab.
(§2) *Macrolide resistant strain
(§3) **Medium (Eiken PPLO Medium)

[2] = system: Mycoplasma gallisepticum E-11; experiment: antibacterial activity against Mycoplasma; assay type: cell-based; settings: Mycoplasmoides gallisepticum, E11
Excerpt: as §1, §2, §3

[3] = system: Mycoplasma gallisepticum E-5; experiment: antibacterial activity against Mycoplasma; assay type: cell-based; settings: Mycoplasmoides gallisepticum, E5
Excerpt: as §1, §2, §3

[4] = system: Mycoplasma gallisepticum KP-13; experiment: antibacterial activity against Mycoplasma; assay type: cell-based; settings: Mycoplasmoides gallisepticum, KP13
Excerpt: as §1, §3

[5] = system: Streptococcus pyogenes MH-771; experiment: antimicrobial activity, broth dilution method; assay type: cell-based; settings: Streptococcus pyogenes, MH771, Streptococcus pyogenes MH-771, drug-resistant clinical isolate; read-out: minimum inhibitory concentration (MIC)
Method: (§4) Antimicrobial activity of the new antibiotics according to the present invention was measured on various pathogenic microorganisms by the broth dilution mehtod. Tab. […] The new antibiotics show a similar antimicrobial spectrum to that of tylosin as shown in Tab. 4. All the compounds have an excellent antimicrobial activity mainly on gram-positive bacteria. […] Test microorganisms with an asterisk mark (*) in Tab. 4 are all drug-resistant strains that were clinically isolated. More in detail, Staphylococcus aureus MS-8710 is resistant to tylosin, penicillin, tetracycline, erythromycin and leucomycin. Staphylococcus aureus MS-9931 is resistant to tylosin, penicillin, erythromycin, tetracycline, leucomycin, spiramycin and josamycin. And also Streptococcus piogenes is resistant to tylosin, erythromycin, oleandomycin and leucomycin.

[6] = system: Staphylococcus aureus MS-9937; experiment: antimicrobial activity, broth dilution method; assay type: cell-based; settings: MS9937; Staphylococcus aureus MS-9937, drug-resistant clinical isolate; read-out: minimum inhibitory concentration (MIC)
Method: as §4

[7] = system: Bacillus cereus ATCC 9634; experiment: antimicrobial activity, broth dilution method; assay type: cell-based; settings: Bacillus cereus, ATCC9634, Bacillus cereus ATCC 9634; broth dilution; read-out: minimum inhibitory concentration (MIC)
Method: as §4

[8] = system: Staphylococcus aureus MS-8710; experiment: antimicrobial activity, broth dilution method; assay type: cell-based; settings: Staphylococcus aureus, MS8710, Staphylococcus aureus MS-8710, drug-resistant clinical isolate; read-out: minimum inhibitory concentration (MIC)
Method: as §4

[9] = system: Sarcina lutea ATCC 9341; experiment: antimicrobial activity, broth dilution method; assay type: cell-based; settings: Micrococcus luteus, ATCC9341, Sarcina lutea ATCC 9341, read-out: minimum inhibitory concentration (MIC)
Method: as §4

[10] = system: Staphylococcus aureus MS-9931; experiment: antimicrobial activity, broth dilution method; assay type: cell-based; settings: MS9931; Staphylococcus aureus MS-9931, drug-resistant clinical isolate; read-out: minimum inhibitory concentration (MIC)
Method: as §4

[11] = system: Staphylococcus aureus SMITH; experiment: antimicrobial activity, broth dilution method; assay type: cell-based; settings: Staphylococcus aureus, Staphylococcus aureus SMITH; broth dilution; read-out: minimum inhibitory concentration (MIC)
Method: as §4

[12] = system: Staphylococcus aureus FDA-209P; experiment: antimicrobial activity, broth dilution method; assay type: cell-based; settings: Staphylococcus aureus, FDA209P, Staphylococcus aureus FDA-209P; broth dilution; read-out: minimum inhibitory concentration (MIC)
Method: as §4

[13] = in vivo; settings: mouse, po, 100 mg/kg
Method: The new antibiotics according to the present invention were each orally administered to mice at a dose of 100 mg/kg. Each blood level was then measured and compared with those of tylosin and 3-acetyltylosin.

[14] = strain E-11, macrolide resistant, Eiken PPLO Medium, read-out: MIC
[15] = strain E-5, macrolide resistant, Eiken PPLO Medium, read-out: MIC
[16] = strain KP-13, Eiken PPLO Medium, read-out: MIC

SMILES | MIC [1] | MIC [2, 14] | MIC [3, 15] | MIC [4, 16] | MIC [5] | MIC [6] | MIC [7] | MIC [8] | MIC [9] | MIC [10] | MIC [11] | MIC [12] | MIC [4] | MIC [2] | MIC [3] | Cmax [13] | concentration at 1 h [13] | concentration at 3 h [13]
CCC1OC(=O)CC(O)C(C)C(OC2OC(C)C(OC3CC(C)(O)C(OC(=O)CSc4ccncc4)C(C)O3)C(N(C)C)C2O)C(CC=O)CC(C)C(=O)C=CC(C)=CC1COC1OC(C)C(O)C(OC)C1OC (centres unmarked) [Compound 41, 4"-(4-pyridyl)thioacetyltylosin] | 0.157 µg/mL (≈ 0.147 µM) | 0.313 µg/mL (≈ 0.293 µM) | 0.313 µg/mL (≈ 0.293 µM) | 0.039 µg/mL (≈ 0.0365 µM) | 12.5 µg/mL (≈ 11.7 µM) | 12.5 µg/mL (≈ 11.7 µM) | 0.39 µg/mL (≈ 0.365 µM) | 12.5 µg/mL (≈ 11.7 µM) | 0.19 µg/mL (≈ 0.178 µM) | 12.5 µg/mL (≈ 11.7 µM) | 0.39 µg/mL (≈ 0.365 µM) | 0.78 µg/mL (≈ 0.731 µM) |  |  |  |  |  | 
CCC1OC(=O)CC(OC(C)=O)C(C)C(OC2OC(C)C(OC3CC(C)(O)C(OC(=O)CN(C(C)=O)c4ccccc4)C(C)O3)C(N(C)C)C2O)C(CC=O)CC(C)C(=O)C=CC(C)=CC1COC1OC(C)C(O)C(OC)C1OC (centres unmarked) [Compound 32, 3-acetyl-4"-(N-acetylanilino)acetyltylosin] | 0.157 µg/mL (≈ 0.139 µM) | 0.313 µg/mL (≈ 0.276 µM) | 0.313 µg/mL (≈ 0.276 µM) |  | 12.5 µg/mL (≈ 11 µM) | 25 µg/mL (≈ 22.1 µM) | 0.78 µg/mL (≈ 0.688 µM) | 12.5 µg/mL (≈ 11 µM) | 0.39 µg/mL (≈ 0.344 µM) | 25 µg/mL (≈ 22.1 µM) | 0.78 µg/mL (≈ 0.688 µM) | 0.78 µg/mL (≈ 0.688 µM) | 0.157 µg/mL (≈ 0.139 µM) |  |  |  |  | 
CCC1OC(=O)CC(O)C(C)C(OC2OC(C)C(OC3CC(C)(O)C(OC(=O)CSC4CCCCC4)C(C)O3)C(N(C)C)C2O)C(CC=O)CC(C)C(=O)C=CC(C)=CC1COC1OC(C)C(O)C(OC)C1OC (centres unmarked) [Compound 40, 4"-cyclohexylthioacetyltylosin] | 0.157 µg/mL (≈ 0.146 µM) |  |  | 0.078 µg/mL (≈ 0.0727 µM) | 6.25 µg/mL (≈ 5.83 µM) | 25 µg/mL (≈ 23.3 µM) | 0.78 µg/mL (≈ 0.727 µM) | 12.5 µg/mL (≈ 11.7 µM) | 0.39 µg/mL (≈ 0.364 µM) | 12.5 µg/mL (≈ 11.7 µM) | 0.78 µg/mL (≈ 0.727 µM) | 0.78 µg/mL (≈ 0.727 µM) |  | 0.157 µg/mL (≈ 0.146 µM) | 0.157 µg/mL (≈ 0.146 µM) |  |  | 
CCC1OC(=O)CC(OC(C)=O)C(C)C(OC2OC(C)C(OC3CC(C)(O)C(OC(=O)CSCc4ccccc4)C(C)O3)C(N(C)C)C2O)C(CC=O)CC(C)C(=O)C=CC(C)=CC1COC1OC(C)C(O)C(OC)C1OC (centres unmarked) [Compound 38, 3-acetyl-4"-benzylthioacetyltylosin] | 0.078 µg/mL (≈ 0.0695 µM) | 0.078 µg/mL (≈ 0.0695 µM) | 0.078 µg/mL (≈ 0.0695 µM) | 0.019 µg/mL (≈ 0.0169 µM) | 6.25 µg/mL (≈ 5.57 µM) | 12.5 µg/mL (≈ 11.1 µM) | 1.56 µg/mL (≈ 1.39 µM) | 12.5 µg/mL (≈ 11.1 µM) | 0.39 µg/mL (≈ 0.347 µM) | 12.5 µg/mL (≈ 11.1 µM) | 0.78 µg/mL (≈ 0.695 µM) | 0.78 µg/mL (≈ 0.695 µM) |  |  |  |  |  | 
CCC1OC(=O)CC(OC(C)=O)C(C)C(OC2OC(C)C(OC3CC(C)(O)C(O)C(C)O3)C(N(C)C)C2O)C(CC=O)CC(C)C(=O)C=CC(C)=CC1COC1OC(C)C(O)C(OC)C1OC (centres unmarked) [3-acetyltylosin, reference compound] |  |  |  |  | 200 µg/mL (≈ 209 µM) | 100 µg/mL (≈ 104 µM) | 0.78 µg/mL (≈ 0.814 µM) | 200 µg/mL (≈ 209 µM) | 0.19 µg/mL (≈ 0.198 µM) | 200 µg/mL (≈ 209 µM) | 0.39 µg/mL (≈ 0.407 µM) | 0.39 µg/mL (≈ 0.407 µM) |  |  |  | 2000 to 5000 ng/mL |  | 
CCC1OC(=O)CC(O)C(C)C(OC2OC(C)C(OC3CC(C)(O)C(OC(=O)CCc4ccccc4)C(C)O3)C(N(C)C)C2O)C(CC=O)CC(C)C(=O)C=CC(C)=CC1COC1OC(C)C(O)C(OC)C1OC (stereo not drawn) [Compound 24, 4"-β-phenylpropionyltylosin] | 0.157 µg/mL (≈ 0.15 µM) | 0.313 µg/mL (≈ 0.299 µM) | 0.313 µg/mL (≈ 0.299 µM) | 0.078 µg/mL (≈ 0.0744 µM) | 25 µg/mL (≈ 23.8 µM) | 25 µg/mL (≈ 23.8 µM) | 0.78 µg/mL (≈ 0.744 µM) | 12.5 µg/mL (≈ 11.9 µM) | 0.19 µg/mL (≈ 0.181 µM) | 12.5 µg/mL (≈ 11.9 µM) | 0.39 µg/mL (≈ 0.372 µM) | 0.78 µg/mL (≈ 0.744 µM) |  |  |  |  | 12000 ng/mL | 2000 ng/mL
CCC1OC(=O)CC(O)C(C)C(OC2OC(C)C(OC3CC(C)(O)C(OC(=O)CCC4CCCCC4)C(C)O3)C(N(C)C)C2O)C(CC=O)CC(C)C(=O)C=CC(C)=CC1COC1OC(C)C(O)C(OC)C1OC (stereo not drawn) [Compound 29, 4"-β-cyclohexylpropionyl tylosin] | 0.313 µg/mL (≈ 0.297 µM) | 0.625 µg/mL (≈ 0.593 µM) |  | 0.039 µg/mL (≈ 0.037 µM) | 6.25 µg/mL (≈ 5.93 µM) | 12.5 µg/mL (≈ 11.9 µM) | 0.78 µg/mL (≈ 0.74 µM) | 12.5 µg/mL (≈ 11.9 µM) | 0.39 µg/mL (≈ 0.37 µM) | 12.5 µg/mL (≈ 11.9 µM) | 0.78 µg/mL (≈ 0.74 µM) | 0.78 µg/mL (≈ 0.74 µM) |  |  | 0.313 µg/mL (≈ 0.297 µM) |  |  | 
